The values that follow come from patent US11248018B2, “Process for preparation of nicotinamide riboside (NR) and cosmetic composition comprising (NR and a phosphate-binding agent” (YISSUM RESEARCH DEVELOPMENT COMPANY OF THE HEBREW …, priority 2016, dated 2022).

Common to all, as to format: physicochemical
A short description of series [1]: Hydrolysis of NAD^+ with phosphate binding agent (calcium L-ascorbate) alone in water at 80° C. (Example 3), concentrations over time. Particulars: for Relative Concentration: Example 3, calcium L-ascorbate alone, 80° C. On the procedure: In a 250-ml flask, a mixture of NAD^+ (0.34 gr) and 1.8 gr of calcium L-ascorbate in 100 ml of deionized water was heated to 80° C. for 4 days. The mixture was analyzed every 3 hours using HPLC and ^31P-NMR.
The rate of the tertiary hydrolysis (decomposition of the NR) is slower. Under these conditions, the concentration of the NR remains essentially stable (˜10% decline) over 24 hours (steady-state). The concentration was determined by comparing the abundance of the desired peak to the abundance of the internal standard MS and ^1H- and ^31P-NMR (intensity of the signal). After this time the concentration of the NR decreased and the product was no longer present.

Series [2] can be described thus: One-stage hydrolysis of NAD^+ with ZrCl4 and calcium L-ascorbate in water at 80° C. (Example 2), concentrations over time. Particulars: for Relative Concentration: Example 2, ZrCl4 + calcium L-ascorbate, 80° C. On the procedure: NMR spectra were recorded with 400 MHz Bruker spectrometer. Reversed phase HPLC column of RP-18 type (Chromolith performance RP18e (100-4.6 mm) UM8 086/001, Merck KGaA) using deionized HPLC-grade solvents in the following composition: 1% acetonitrile, 99% water. Flow rate was 0.1 mL/min, detection performed with UV detector at 260 nm. Mass Spectrometry (MS), 6200 series TOF/6500 series Q-TOF B.05.01 (B5125.1).
In a 250-ml flask, a mixture of NAD^+ (0.33 gr), ZrCl4 (0.58 gr) and 1.80 gr of calcium L-ascorbate in 100 ml of deionized water was heated to 80° C. for 2 days. Over this time period, full conversion of the NAD^+ was observed by HPLC. Decomposition of the desired NR product was also observed under these conditions, but to a lower extent in comparison with the process of Example 1. HR-MS spectrum of the product is MW of 255.10. The extent of the decomposition of the desired NR was determined by comparing the abundance of the desired peak to the abundance of the internal standard.

The nature of series [3]: Stability of commercial NR product under hydrolytic conditions in deionized water, followed by NMR. How it is done: Additionally, to establish the stability of the commercial NR product (Niagen® purchased from ChromaDex) under hydrolytic conditions, it was dissolved in deionized water as described herein and the mixture was analyzed every 3 hours using ^1H- and ^31P-NMR.

Consider `NC(=O)C1=CN([C@@H]2O[C@H](COP(=O)(O)OP(=O)(O)OC[C@H]3O[C@@H](n4cnc5c(N)ncnc54)[C@H](O)[C@@H]3O)[C@@H](O)[C@H]2O)C=CC1` [NAD^+, β-nicotinamide adenine dinucleotide], for which the “Relative Concentration” value amounted to 1 in series [1] (time 0 hours); 0.86 in series [1] (time 0.5 hours); 0.62 in series [1] (time 6 hours); 0.55 in series [1] (time 16 hours); 0.38 in series [1] (time 24 hours); 0.22 in series [1] (time 36 hours). Also, the “Relative Concentration” value turned out to be 0.2 in series [1] (time 48 hours); 1 in series [2] (time 0 hours); 0.66 in series [2] (time 0.5 hours); 0.32 in series [2] (time 6 hours); 0.05 in series [2] (time 16 hours); 0 in series [2] (time 24 hours).

Regarding `NC(=O)c1ccc[n+]([C@@H]2O[C@H](CO)[C@@H](O)[C@H]2O)c1` [NR (Niagen ®), Nicotinamide riboside], the “NR peak at 6.15 ppm in 1H-NMR versus DMF internal standard” value in series [3] (after 24 hours) is “NR has degraded”. The Relative Concentration amounted to 1 in series [3] (time 0.5 hours); 0.62 in series [3] (time 3 hours); 0.48 in series [3] (time 6 hours); 0.02 in series [3] (time 24 hours); 0 in series [3] (time 48 hours).

For the molecule `NC(=O)c1ccc[n+]([C@@H]2O[C@H](CO)[C@@H](O)[C@H]2O)c1` [NR, 1-(β-D-Ribofuranosyl)-nicotinamide], the “Relative Concentration” value in series [1] (time 0 hours) turned out to be 0; in series [1] (time 0.5 hours), 0.06; in series [1] (time 6 hours), 0.11; in series [1] (time 16 hours), 0.09; in series [1] (time 24 hours), 0.08; in series [1] (time 36 hours) it was 0.01. The “Relative Concentration” value in series [1] (time 48 hours) came out at 0; in series [2] (time 0 hours), 0; in series [2] (time 0.5 hours), 0.05; in series [2] (time 6 hours), 0.06; in series [2] (time 16 hours), 0.02; in series [2] (time 24 hours), 0. In addition, in series [1] (over 24 hours (steady-state), Example 3), the “decline of NR concentration” value is given as approximately 10%. For the same molecule, in series [1] (solution from degrading NAD^+ with phosphate-binding agent alone, absence of ZrCl4), the “time the concentration of the product remains stable (decline of no more than 10%)” value is recorded as “at least 24 hours”. Further, the “stability of the NR concentrations” value in series [2] (NR-containing aqueous solution, ZrCl4 with phosphate-binding agent added concurrently) was “about 6 hours”.

For the molecule `NC(=O)c1cccnc1` [Nicotinamide, nicotinamide], the “Relative Concentration” value in series [1] (time 0 hours) amounted to 0; in series [1] (time 0.5 hours), 0.1; in series [1] (time 6 hours), 0.16; in series [1] (time 16 hours) it was 0.32; in series [1] (time 24 hours), 0.48; in series [1] (time 36 hours) it was 0.41. The “Relative Concentration” value in series [1] (time 48 hours) is listed as 0.41; in series [2] (time 0 hours), 0; in series [2] (time 0.5 hours), 0.1; in series [2] (time 6 hours), 0.19; in series [2] (time 16 hours), 0.32; in series [2] (time 24 hours) it was 0.48.
